Assay [1] concerns the target T1, Mineralocorticoid receptor (Homo sapiens, UniProt P08235).
T1 sequence (P08235 whole entry): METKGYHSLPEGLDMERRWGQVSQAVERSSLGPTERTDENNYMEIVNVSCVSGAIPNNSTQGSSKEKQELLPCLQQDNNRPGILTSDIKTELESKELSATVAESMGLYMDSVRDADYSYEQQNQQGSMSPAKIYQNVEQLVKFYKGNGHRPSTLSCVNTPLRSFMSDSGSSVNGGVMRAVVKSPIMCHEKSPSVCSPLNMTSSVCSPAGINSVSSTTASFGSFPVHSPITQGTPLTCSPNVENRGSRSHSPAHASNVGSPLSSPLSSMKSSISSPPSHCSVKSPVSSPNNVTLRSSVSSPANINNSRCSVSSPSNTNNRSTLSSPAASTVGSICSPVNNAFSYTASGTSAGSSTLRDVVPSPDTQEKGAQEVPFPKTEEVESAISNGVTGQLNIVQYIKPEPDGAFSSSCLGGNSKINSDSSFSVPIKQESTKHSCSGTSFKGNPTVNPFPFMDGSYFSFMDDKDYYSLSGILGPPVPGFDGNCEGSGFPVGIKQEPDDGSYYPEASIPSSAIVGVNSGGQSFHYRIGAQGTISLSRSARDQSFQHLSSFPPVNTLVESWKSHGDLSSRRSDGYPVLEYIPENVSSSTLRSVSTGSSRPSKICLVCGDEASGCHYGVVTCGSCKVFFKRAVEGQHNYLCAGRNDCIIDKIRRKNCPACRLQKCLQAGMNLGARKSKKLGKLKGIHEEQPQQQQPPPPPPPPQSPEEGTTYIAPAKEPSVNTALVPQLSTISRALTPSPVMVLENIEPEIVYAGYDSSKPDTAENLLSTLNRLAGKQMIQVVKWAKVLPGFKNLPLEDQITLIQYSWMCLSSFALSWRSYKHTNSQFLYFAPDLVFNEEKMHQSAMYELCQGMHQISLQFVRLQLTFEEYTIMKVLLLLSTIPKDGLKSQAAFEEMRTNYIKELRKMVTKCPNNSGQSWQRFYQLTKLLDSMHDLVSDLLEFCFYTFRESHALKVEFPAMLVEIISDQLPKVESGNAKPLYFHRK
Put plainly: Antagonist activity at mineralocorticoid receptor (unknown origin).

The nature of assay [2]: Displacement of (2S)-N-(2-phenylphenyl)-1-[2-[1-(tritritiomethyl)benzimidazol-2-yl]sulfanylacetyl]pyrrolidine-2-carboxamide from human OX1 receptor Ile408-Val mutant expressed on CHO cell membrane measured after 3 hrs by TopCount method.
A further assay addresses T2, Orexin receptor type 2 (Homo sapiens, UniProt O43614).
T2 sequence (O43614 whole entry): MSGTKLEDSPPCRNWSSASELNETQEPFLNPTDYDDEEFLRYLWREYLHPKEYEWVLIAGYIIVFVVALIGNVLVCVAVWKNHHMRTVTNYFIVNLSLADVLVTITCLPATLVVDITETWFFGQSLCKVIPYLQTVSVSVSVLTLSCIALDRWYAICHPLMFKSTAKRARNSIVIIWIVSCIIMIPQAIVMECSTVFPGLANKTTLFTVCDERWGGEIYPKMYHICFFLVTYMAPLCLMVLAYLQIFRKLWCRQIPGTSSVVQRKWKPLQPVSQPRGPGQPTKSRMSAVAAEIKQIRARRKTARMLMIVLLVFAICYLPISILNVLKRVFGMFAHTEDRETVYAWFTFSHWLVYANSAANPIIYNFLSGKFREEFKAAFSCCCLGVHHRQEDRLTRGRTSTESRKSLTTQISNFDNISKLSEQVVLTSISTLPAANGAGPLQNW
Put plainly: Displacement of (2S)-N-(2-pyrrol-1-ylphenyl)-1-[2-[1-(tritritiomethyl)benzimidazol-2-yl]sulfanylacetyl]pyrrolidine-2-carboxamide from recombinant human OX2 receptor expressed in CHO cell membranes after 3 hrs by Topcount method.

pKi: −log10 of the molar value.

Molecule `O=C1COc2ccc(N3CCc4ccc(F)cc4CC3)cc2N1` gave a pKi in assay [1] of 6.71.

For the molecule `Cc1ccc(-n2nccn2)c(C(=O)N2CCCC(COc3ccc(F)cn3)C2)c1` (stereo not drawn), in assay [2], the pKi was 7.02.

Take `Cc1ccc(-n2nccn2)c(C(=O)N2CCC[C@@H](COc3ccc(F)cn3)[C@@H]2C)c1` (relative stereo): the pKi on Orexin receptor type 2 was 9.70.

The values above are taken from ChEMBL document CHEMBL4033673, “Conformational control in structure-based drug design” (Bioorg Med Chem Lett, 2017).
